Values joined by “and” are separate entries in the source; they are usually repeats but may differ in a detail not shown here. Equal entries are not always repeated.
How the values were obtained:
[1] = target: Glycogen synthase kinase-3 alpha (Homo sapiens, UniProt P49840); experiment: TR-FRET Assay
Summary of the method: (§1)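 Signal is measured as TR-FRET between a terbium anti-phospho-Ser641 antibody and streptavidin-d2, added after an EDTA quench. Compounds are preincubated 30 min in assay buffer.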

[2] = target: Glycogen synthase kinase-3 beta (Homo sapiens, UniProt P49841); experiment: TR-FRET Assay
Summary of the method: as §1

Glycogen synthase kinase-3 beta, sequence (P49841 whole entry): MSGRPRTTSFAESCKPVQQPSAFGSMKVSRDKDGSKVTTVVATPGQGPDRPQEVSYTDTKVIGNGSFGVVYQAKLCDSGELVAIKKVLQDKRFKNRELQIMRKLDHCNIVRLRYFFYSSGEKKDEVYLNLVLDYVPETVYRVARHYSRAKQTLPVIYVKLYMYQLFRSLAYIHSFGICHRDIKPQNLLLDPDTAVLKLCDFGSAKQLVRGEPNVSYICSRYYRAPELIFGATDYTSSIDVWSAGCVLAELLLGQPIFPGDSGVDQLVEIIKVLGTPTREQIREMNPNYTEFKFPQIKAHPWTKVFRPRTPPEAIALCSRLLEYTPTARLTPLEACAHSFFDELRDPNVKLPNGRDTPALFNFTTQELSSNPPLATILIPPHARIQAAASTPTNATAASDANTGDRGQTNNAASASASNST
Glycogen synthase kinase-3 alpha, sequence (P49840 whole entry): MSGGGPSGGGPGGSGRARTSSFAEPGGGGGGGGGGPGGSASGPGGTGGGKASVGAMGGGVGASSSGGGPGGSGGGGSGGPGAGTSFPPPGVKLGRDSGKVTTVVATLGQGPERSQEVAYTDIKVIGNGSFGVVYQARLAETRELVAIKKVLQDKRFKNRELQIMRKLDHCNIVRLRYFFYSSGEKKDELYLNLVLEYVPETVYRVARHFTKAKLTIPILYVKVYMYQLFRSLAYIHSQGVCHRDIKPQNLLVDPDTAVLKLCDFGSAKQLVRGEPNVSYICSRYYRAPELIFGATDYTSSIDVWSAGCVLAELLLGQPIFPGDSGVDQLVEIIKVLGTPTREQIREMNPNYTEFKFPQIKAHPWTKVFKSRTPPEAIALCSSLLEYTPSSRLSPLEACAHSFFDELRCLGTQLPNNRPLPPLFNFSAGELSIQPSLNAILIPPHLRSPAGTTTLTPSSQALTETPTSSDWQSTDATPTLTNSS

IC50 [1]	IC50 [2]	Structure (SMILES)
1000 to 5000 nM	> 5000 nM	CC[C@]1(c2cccc(-c3ccnc4cc(F)c(F)cc34)c2)C2=CN=NC2NC2=C1C(=O)NC(C)(C)C2 (stereo partly specified) [US20250313563, Compound 948664]
< 100 nM and 100 to 1000 nM	< 100 nM and 1000 to 5000 nM	CC[C@@]1(c2cccc(-c3ccnc4c3CCC4)c2)C2=C(CC(C)(C)NC2=O)NC2N=NC(C(F)(F)F)=C21 (stereo partly specified) [US20250313563, Compound 948778]
< 100 nM	< 100 nM	COc1cncc(S(=O)(=O)N2CCC3(CC2)C2=C(N=NC2)NC2=C3C(=O)CC(C)(C)C2)c1 [US20250313563, Compound 947465]
< 100 nM	< 100 nM	CC[C@@]1(c2cccc(N(C)C(=O)c3cnn(C)c3)c2)C2=CN=NC2NC2=C1C(=O)CC(C)(C)C2 (stereo partly specified) [US20250313563, Compound 913310]
100 to 1000 nM	100 to 1000 nM	CC[C@]1(c2cccc(C(C)C)c2)C2=CN=NC2NC2=C1C(=O)NC(C)(C)C2 (stereo partly specified) [US20250313563, Compound 949761]
< 100 nM	100 to 1000 nM	CC1(C)CC(=O)C2=C(C1)NC1=C(CN=N1)C21CCCSCC1 (stereo unspecified) [US20250313563, Compound 913126]
< 100 nM	1000 to 5000 nM	CCC1(c2cccc(-c3ccnc(C)c3)c2)C2=C(CC(C)(C)NC2=O)NC2N=NC(F)=C21 (stereo unspecified) [US20250313563, Compound 948299]
1000 to 5000 nM	1000 to 5000 nM	C[C@H]1CCC[C@]12C1=CN=NC1NC1=C2C(=O)CC(C)(C)C1 (stereo partly specified) [US20250313563, Compound 874320]
< 100 nM	100 to 1000 nM	CCC1(c2cccc(C(F)(F)F)c2)C2=CN=NC2NC2=C1C(=O)NC(C)C2 (stereo unspecified) [US20250313563, Compound 911956]
< 100 nM and 100 to 1000 nM	100 to 1000 nM and 1000 to 5000 nM	CC[C@]1(c2cccc(C(F)(F)F)c2)C2=CN=NC2NC2=C1C(=O)N[C@H](C(C)(C)C)C2 (stereo partly specified) [US20250313563, Compound 945920]
< 100 nM	100 to 1000 nM	CC[C@@]1(c2cccc(-c3ccnc(C)c3)c2)C2=C(N=NC2)NC2=C1C(=O)[C@H]1CC[C@@H]2C1 [US20250313563, Compound 943916]
< 100 nM	100 to 1000 nM	CC[C@]1(c2cccc(C(F)(F)F)c2)C2=C(N=NC2)NC2=C1C(=O)N(Cc1ccccc1)[C@H]2C [US20250313563, Compound 930331]
< 100 nM and 100 to 1000 nM	< 100 nM and 1000 to 5000 nM	CC[C@]1(c2cccc(C(C)C)c2)C2=C(CC(C)(C)NC2=O)NC2N=NC(C)=C21 (stereo partly specified) [US20250313563, Compound 949649]
< 100 nM	< 100 nM	CC(C)c1nc(S(=O)(=O)N2CCC3(CC2)C2=C(N=NC2)NC2=C3C(=O)CC(C)(C)C2)cn1C [US20250313563, Compound 945663]
< 100 nM	< 100 nM	CC1(C)CC(=O)C2=C(C1)NC1N=NC=C1C21CCCN(S(=O)(=O)c2ccccc2)CC1 (stereo unspecified) [US20250313563, Compound 889578]
100 to 1000 nM	100 to 1000 nM	CC1(C)CC2=C(C(=O)[C@@H]1F)C1(CCOCC1)C1=C(N=NC1)N2 [US20250313563, Compound 883835]
< 100 nM	100 to 1000 nM	CCC1(c2cccc(N(C)c3ccc(F)nc3)c2)C2=CN=NC2NC2=C1C(=O)CC(C)(C)C2 (stereo unspecified) [US20250313563, Compound 917152]
< 100 nM	< 100 nM	CCC1(c2cccc(N3CCCC3)c2)C2=C(CC(C)(C)CC2=O)NC2N=NC(C(F)(F)F)=C21 (stereo unspecified) [US20250313563, Compound 810506]
100 to 1000 nM	1000 to 5000 nM	CC[C@]1(c2cccc(-c3cnn(C(C)C)c3F)c2)C2=CN=NC2NC2=C1C(=O)NC(C)(C)C2 (stereo partly specified) [US20250313563, Compound 949267]
< 100 nM	< 100 nM and 100 to 1000 nM	CC[C@]1(c2cccc(N(C)c3ncccn3)c2)C2=CN=NC2NC2=C1C(=O)CC(C)(C)C2 (stereo partly specified) [US20250313563, Compound 911980]
< 100 nM	< 100 nM	Cn1ccc(S(=O)(=O)N2CC3(C2)C2=C(N=NC2)NC2=C3C(=O)CC(C)(C)C2)n1 [US20250313563, Compound 913260]
100 to 1000 nM	1000 to 5000 nM	C[C@H]1C[C@]2(CCO1)C1=C(N=NC1)NC1=C2C(=O)CC(C)(C)C1 [US20250313563, Compound 899560]
100 to 1000 nM	100 to 1000 nM	CC[C@@]1(c2cccc(-c3ccnn3-c3ccc(F)cc3)c2)C2=CN=NC2NC2=C1C(=O)NC(C)(C)C2 (stereo partly specified) [US20250313563, Compound 950822]
> 5000 nM	> 5000 nM	CC[C@@]1(c2cccc(C(F)(F)F)c2)C2=CN=NC2NC2=C1C(=O)C[C@]1(CCN(C)C1=O)C2 (stereo partly specified) [US20250313563, Compound 950325]
< 100 nM	< 100 nM	CC(=O)N1C[C@@]2(C[C@]3(CO2)C2=C(N=NC2)NC2=C3C(=O)CC(C)(C)C2)[C@@H]1C [US20250313563, Compound 948440]
100 to 1000 nM	> 5000 nM	CC[C@@]1(c2cccc(-c3cnn(-c4ccncc4)c3)c2)C2=CN=NC2NC2=C1C(=O)NC(C)(C)C2 (stereo partly specified) [US20250313563, Compound 952912]
< 100 nM	< 100 nM	CC(C)CC(=O)N1CC2(C1)CC1(CO2)C2=C(N=NC2)NC2=C1C(=O)CC(C)(C)C2 (stereo unspecified) [US20250313563, Compound 947302]

IC50 [1]	IC50 [2]	Structure (SMILES)
< 100 nM	100 to 1000 nM	CC[C@@]1(c2cccc(-c3ccnc4c3cnn4C)c2)C2=CN=NC2NC2=C1C(=O)NC(C)(C)C2 (stereo partly specified) [US20250313563, Compound 952913]
< 100 nM	< 100 nM	CC1(C)CC(=O)C2=C(C1)NC1=C(CN=N1)[C@@]21COC2(CN(C(=O)C3CCCC3)C2)C1 [US20250313563, Compound 943957]
< 100 nM	< 100 nM	CC1(C)CC(=O)C2=C(C1)NC1=C(CN=N1)C21CCC2(CC2)CC1 [US20250313563, Compound 893312]
< 100 nM	100 to 1000 nM	CC[C@]1(c2cccc(C(F)(F)F)c2)C2=CN=NC2NC2=C1C(=O)N[C@H](c1ccccc1)C2 (stereo partly specified) [US20250313563, Compound 945361]
< 100 nM	< 100 nM	CC1(C)CC(=O)C2=C(C1)NC1=C(CN=N1)C21COC2(CN(C(=O)c3ccc(F)cc3)C2)C1 (stereo unspecified) [US20250313563, Compound 947292]
1000 to 5000 nM	> 5000 nM	CC1(C)CC(=O)C2=C(C1)NC1=C(CN=N1)[C@@]2(C)c1cc(C(F)(F)F)ccc1F [US20250313563, Compound 816797]
> 5000 nM	> 5000 nM	CC[C@@]1(c2cccc(C(F)(F)F)c2)C2=CN=NC2NC2=C1C(=O)N(c1cn(C)c(C)n1)CC2 (stereo partly specified) [US20250313563, Compound 952479]
< 100 nM	< 100 nM	CC1(C)CC(=O)C2=C(C1)NC1=C(CN=N1)C21COC2(CN(C(=O)C3(F)CCC3)C2)C1 (stereo unspecified) [US20250313563, Compound 947279]
< 100 nM	< 100 nM	CCC1(c2cccc(N3CCCC3)c2)C2=C(CC(C)(C)CC2=O)NC2N=NC(C)=C21 (stereo unspecified) [US20250313563, Compound 874314]
< 100 nM and 100 to 1000 nM	< 100 nM and 1000 to 5000 nM	CCOc1cccc(S(=O)(=O)N2CCC3(CC2)C2=C(N=NC2)NC2=C3C(=O)CC(C)(C)C2)c1 [US20250313563, Compound 947253]
< 100 nM	< 100 nM	CC1(C)CC(=O)C2=C(NC3=C(CN=N3)C23CCCCC3)[C@@H]1F [US20250313563, Compound 951705]
< 100 nM	100 to 1000 nM	CCC1(c2cccc(C(F)(F)F)c2)C2=CN=NC2NC2=C1C(=O)N(C(C)C)CC2 (stereo unspecified) [US20250313563, Compound 825755]
< 100 nM	100 to 1000 nM	CC1(C)CC(=O)C2=C(C1)NC1=C(CN=N1)C21Cc2ccccc2C1 [US20250313563, Compound 897752]
1000 to 5000 nM	> 5000 nM	CCCS(=O)(=O)c1cccc([C@]2(CC)C3=CN=NC3NC3=C2C(=O)CC(C)(C)C3)c1 (stereo partly specified) [US20250313563, Compound 929452]
< 100 nM and 100 to 1000 nM	100 to 1000 nM and > 5000 nM	CC[C@]1(c2cccc(C(F)(F)F)c2)C2=CN=NC2NC2=C1C(=O)N(c1cccnc1)CC2 (stereo partly specified) [US20250313563, Compound 947432]
> 5000 nM	> 5000 nM	CC[C@]1(c2cccc(C3=CN(C)NC3C)c2)C2=C(N=NC2)NC2=C1C(=O)C(C)(C)C2 (stereo partly specified) [US20250313563, Compound 951710]
< 100 nM	< 100 nM	CC1(C)CC(=O)C2=C(C1)NC1=C(CN=N1)C21COC2(CN(C(=O)C3(F)CCCC3)C2)C1 (stereo unspecified) [US20250313563, Compound 947277]
< 100 nM	< 100 nM	CC1(C)CC2=C(C(=O)[C@H]1F)[C@]1(CC[C@H](C(F)(F)F)CC1)C1=C(N=NC1)N2 [US20250313563, Compound 918282]
< 100 nM	< 100 nM	CCCn1nccc1-c1cccc(C2(CC)C3=CN=NC3NC3=C2C(=O)CC(C)(C)C3)c1 (stereo unspecified) [US20250313563, Compound 929400]
< 100 nM	< 100 nM	CCC1(c2cccc(-c3cn(C)nc3C)c2)C2=C(CC(C)(C)NC2=O)NC2N=NC(C(F)(F)F)=C21 (stereo unspecified) [US20250313563, Compound 947567]
100 to 1000 nM	1000 to 5000 nM	CC[C@@]1(c2cccc(N(C)c3nccc(OC)n3)c2)C2=CN=NC2NC2=C1C(=O)CC(C)(C)C2 (stereo partly specified) [US20250313563, Compound 947337]
< 100 nM and 100 to 1000 nM	< 100 nM and 1000 to 5000 nM	CCc1cccc([C@@]2(CC)C3=CN=NC3NC3=C2C(=O)CC(C)(C)C3)c1 (stereo partly specified) [US20250313563, Compound 949401]
100 to 1000 nM	1000 to 5000 nM	CC[C@@]1(c2cccc(-c3cnnc(C)c3)c2)C2=CN=NC2NC2=C1C(=O)CC(C)(C)C2 (stereo partly specified) [US20250313563, Compound 943994]
100 to 1000 nM	1000 to 5000 nM	CC[C@@]1(c2cccc(-c3ccncc3C)c2)C2=C(CC(C)(C)CC2=O)NC2N=NC(C)=C21 (stereo partly specified) [US20250313563, Compound 913022]
> 5000 nM	> 5000 nM	CC[C@]1(c2ccccc2)C2=CN=NC2NC2=C1C(=O)[C@@H](C)C[C@@H]2C (stereo partly specified) [US20250313563, Compound 865202]
100 to 1000 nM	100 to 1000 nM	CC1(C)CC(=O)C2=C(C1)NC1=C(CN=N1)C21CCN(S(=O)(=O)c2cc(F)ccn2)CC1 [US20250313563, Compound 947262]

— BindingDB's records for patent US20250313563 (The Broad Institute, 2025)
